Test results published in patent publication US20100099559A1, “Method for protecting soybeans from being infected by fungi” (BASF SE, priority 2007, published 2010).

Test system: Cercospora sojina
Assay: Activity against Cercospora sojina, microtiter plate test
Assay type: cell-based
Conditions: single active, absorption at 405 nm on day 7 after inoculation, 18° C.
Method: The expected efficacies of active compound combinations were determined using Colby's formula (Colby, S. R. “Calculating synergistic and antagonistic responses of herbicide combinations”, Weeds, 15, pp. 20-22, 1967) and compared with the observed efficacies. E=x+y−x·y/100 Colby's formula • E expected efficacy, expressed in % of the untreated control, when using the mixture of the active compounds A and B at the concentrations a and b • x efficacy, expressed in % of the untreated control, when using the active compound A at the concentration a • y efficacy, expressed in % of the untreated control, when using the active compound B at the concentration b A solution containing 10 mg a.i. per 1 ml dimethyl sulfoxide is prepared. The stock solution is pipetted onto a microtiter plate (MTP) and diluted with water. In a second step a spore suspension of Cercospora sojina (containing a biomalt-based aqueous nutrient medium) was given to the stated active compound concentration. The plates were placed in a water vapor-saturated chamber at temperatures of 18° C. Using an absorption photometer, the MTPs were measured at 405 nm on day 7 after the inoculation. The measured parameters were compared to the growth of the active compound-free control variant and the fungus- and active compound-free blank value to determine the relative growth in % of the pathogens in the individual active compounds.

Compound	Observed activity (% infection) (concentration 0.063 ppm) [%]	Observed activity (% infection) (concentration 0.016 ppm) [%]
Fc1ccc([C@]2(Cn3cncn3)O[C@H]2c2ccccc2Cl)cc1 (racemic) [epoxiconazole, reference compound]	0	–
Cn1cc(C(=O)Nc2ccccc2[C@@H]2C[C@H]2C2CC2)c(C(F)F)n1 [Compound (Ia), N-(trans-2-bicycloprop-2-ylphenyl)-3-difluoromethyl-1-methyl-1H-pyrazole-4-carboxamide]	31	0
